{
  "source": "patent US20210024649A1",
  "about": "“Methods and Compositions for Antibody and Antibody-loaded Dendritic Cell Mediated Therapy” (The Board of Trustees of the Leland Stanford Junior …, priority 2014, published 2021)",
  "tested_on": "tumor-associated DC (TADC)",
  "assay": "TADC cultured with alloIgG-IC with or without stimuli",
  "format": "cell-based, mouse",
  "conditions": "stimulus added to TADC with alloIgG-IC",
  "description": "BM mononuclear cells were negatively selected using a murine monocyte enrichment kit (Stem Cell Technologies, Vancouver Canada), and FSC^lo/SSC^lo/Gr1^hi/CD115^hi/MHCII^neg cells were sorted with a FACS Aria II (BD Biosciences). Monocytes were cultured for 4-5 days in the presence of 50 ng/ml GM-CSF (PeproTech) to generate DC. For TADC, tumors were digested in Hank's balanced salt solution (HBSS, Gibco) containing 5 mg/mL collagenase IV and 0.01 mg/mL DNase I (Sigma). Cells were applied on a Ficoll gradient and magnetically enriched using CD11b^+ selection kits (StemCells) and Gr1^neg/CD11c^+/MHCII^+ cells were sorted by FACS. In some experiments TADC were activated with 50 ng/mL TNFα (PeproTech) and 500 ng/mL CD40L (PeproTech) recombinant mouse proteins.\nTo resolve this apparent discrepancy, tumor-associated DC (TADC) (FIG. 7a) were obtained and cultured these cells with tumor lysates or alloIgG-IC. […] Since the expression pattern of Fcγ receptors on TADC was similar to that of BMDC, and several immune stimuli are known to induce MAPK activation in DC, the effect of such stimuli on the response of TADC to allogG-IC was tested.",
  "data": [
    {"substance": "polyinosinic:polycytidylic acid [poly I:C]", "values": [
      {"measurement": "activation of TADC and uptake of alloIgG-IC", "value": "enabled activation of TADC as well as uptake of alloIgG-IC"}
    ]}
  ]
}
